Results as given in US20210349099A1, “CANCER BIOMARKERS AND METHODS OF USE THEREOF” (X4 Pharmaceuticals, Inc., priority 2017, published 2021).

Experiments:
[1] = Solubility of X4P-001; format: physicochemical
[2] = test system: B16-OVA tumor microenvironment; experiment: Flow cytometry of immune cell populations in B16-OVA tumor tissue; format: in vivo, C57BL/6 mice
Experimental: Single cell suspensions were prepared from tumor tissues by treating with collagenase and analyzing for various immune cell populations using flow cytometry. Cell surface markers included CD3, CD8, Perforin, CD15CD11b (MDSC), and FoxP3 (Treg). […] The enhancement was even greater for combination therapy with anti-PD-1.

[3] = test system: solid tumors, e.g. advanced or metastatic melanoma; experiment: Biomarker findings in tumors; format: in vivo
Description: Granzyme B is associated with cell death/apoptosis mediated by cytotoxic T lymphocytes (CTLs), natural killer (NK) cells, and cytotoxic T cells. Accordingly, in some embodiments, the biomarker is an observed increase in granzyme B expression in a tumor relative to a control. In some embodiments, the cancer is a solid tumor such as advanced or metastatic melanoma. […] Accordingly, in some embodiments, the biomarker is an observed increase in CD8^+ T cells and/or CD4^+ T cells in a tumor relative to a control. In other embodiments, the biomarker is an increase in the ratio of CD8^+ T cells to Treg cells. In some embodiments, the increase is observed by immunohistochemistry or expression levels of one or both of CD8A and CD8B. In some embodiments, an increase in CD8^+ T cells and/or CD4^+ T cells or CD8^+ T cells/Treg ratio in a tumor sample from a patient who has undergone treatment with […]-001 or X4-136 correlates with an increased likelihood that the patient will benefit from continued treatment with […]-001 alone or in combination with an immunotherapeutic agent, e.g., a checkpoint inhibitor such as a PD-1 antagonist. In some embodiments, the PD-1 antagonist is selected from nivolumab and pembrolizumab, or a biosimilar or variant of such PD-1 antagonists. In some embodiments, the checkpoint inhibitor is nivolumab. In some embodiments, the checkpoint inhibitor is a nivolumab biosimilar or variant. In some embodiments, the checkpoint inhibitor is pembrolizumab. In some embodiments, the checkpoint inhibitor is a pembrolizumab biosimilar or variant. In some embodiments, the tumor is a solid tumor such as advanced or metastatic melanoma. […] In some embodiments, the biomarker is IDO1. In some embodiments, the biomarker is CXCL10. In some embodiments, the biomarker is CXCL9. In some embodiments, the biomarker is HLA-DRA. In some embodiments, the biomarker is STAT1. In some embodiments, the biomarker is IFN-γ. In some embodiments, the biomarker is two or more of IDOL, CXCL10, CXCL9, HLA-DRA, STAT1 and IFN-γ. In some embodiments, the biomarker is three or more of IDO1, CXCL10, CXCL9, HLA-DRA, STAT1 and IFN-γ. In some embodiments, the biomarker is four or more of IDOL, CXCL10, CXCL9, HLA-DRA, STAT1 and IFN-γ. In some embodiments, the biomarker is five or more of IDOL, CXCL10, CXCL9, HLA-DRA, STAT1 and IFN-γ. In some embodiments, the biomarker is all of IDOL, CXCL10, CXCL9, HLA-DRA, STAT1 and IFN-γ. In some embodiments, the biomarker is an increase of all of IDO1, CXCL10, CXCL9, HLA-DRA, STAT1 and IFN-γ. In some embodiments, an increase in one, two, three, four, five, or all of IDOL, CXCL10, CXCL9, HLA-DRA, STAT1 and IFN-γ in a tumor sample from a patient who has undergone treatment with […]-001 correlates with an increased likelihood that the patient will benefit from continued treatment with […]-001 alone or in combination with an immunotherapeutic agent, e.g., a checkpoint inhibitor such as a PD-1 antagonist. In some embodiments, the PD-1 antagonist is selected from nivolumab and pembrolizumab, or a biosimilar or variant of such PD-1 antagonists. In some embodiments, the checkpoint inhibitor is nivolumab. In some embodiments, the checkpoint inhibitor is a nivolumab biosimilar or variant. In some embodiments, the checkpoint inhibitor is pembrolizumab. In some embodiments, the checkpoint inhibitor is a pembrolizumab biosimilar or variant. In some embodiments, the tumor is a solid tumor such as advanced or metastatic melanoma. In some embodiments, the biomarker or the use thereof is one of those described in Ayers et al., Journal of Clinical Investigation 2017, 127(8), 2930-2940 [29] (“Ayers et al. (2017)”) or WO 2016/094377, each of which is hereby incorporated by reference. […] Accordingly, in some embodiments, the biomarker is maintenance or decrease of Treg levels in a tumor relative to a control. In some embodiments, the biomarker is the level of FoxP3 expression, which serves as a means to determine the Treg level. […]

[4] = solid tumors, e.g. advanced or metastatic melanoma

NCCCCN(Cc1nc2ccccc2[nH]1)[C@H]1CCCc2cccnc21 [X4P-001]
solubility ([1]; aqueous buffer, pH range 3.0 to 8.0 (freely soluble)): > 100 mg/mL
solubility in water ([1]; water): only slightly soluble
suppressor cell counts (Tregs and MDSC) [2]: substantially decreased
CTL signature gene expression in tumor samples or the tumor microenvironment ([3]; in vivo): increase
IFN-γ gene signature (panel of IFN-γ related genes) ([3]; in vivo): increase
PD-L1 expression in tumor samples and the tumor microenvironment ([3]; in vivo): increase
granzyme B (GZMB) expression in cancers [3, 4]: increases
levels of Treg cells [3, 4]: without significantly increasing
levels of macrophages in the tumor [3, 4]: without significantly modulating
observed numbers of CD8+ T cells and/or CD4+ T cells in cancers [3, 4]: increases
levels of the VISTA panel of biomarkers ([3]; tumor samples and the tumor microenvironment): modulate
